Assay results reported in patent publication US20240376094A2, “SELECTIVE BCL-XL PROTAC COMPOUNDS AND METHODS OF USE” (Les Laboratoires Servier, priority 2021, published 2024).

Experiments:
Type in all cases: cell-based
MOLT-4 cells [1] = test: MOLT-4 cell viability, MTT assay; settings: Homo sapiens, MOLT-4, 48 h
How it was run: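 MOLT-4 cells in RPMI 1640 with 10% FBS were exposed to compounds for 48 h at 9 concentrations (3.16-fold dilutions, triplicates). After 4 h with MTT and overnight SDS/HCl solubilisation, absorbance was read at 540 nm. IC50 came from four-parameter fits versus control, as the mean of ≥2 independent experiments.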

NCI-H1650 = test: CellTiter-Glo 3D proliferation assay, NCI-H1650 spheroids; parameters: key to NCI-H1650 Span (Amax): —: constructs were tested and inactive; settings: 5 days; for IC50 / Emax: Homo sapiens, NCI-H1650, 120 h; for Emax: read-out: NCI-H1650 Span (Amax)
Protocol: (§1) The BCL-xL degrader compounds were tested against two endogenous cancer cell lines: • COR-L105: ECACC No. 92031918 cultured in RPMI-1640+10% FBS • NCI-H1650: (ATCC No. CRL-5883 cultured in RPMI-1640+10% FBS
(§2) The ability of the BCL-xL degrader low molecular weight compounds to inhibit cell proliferation and survival was assessed using the Promega CellTiter-Glo® proliferation assay.
(§3) Cell lines were cultured in media that is optimal for their growth at 5% CO2, 37° C. in a tissue culture incubator. Prior to seeding for the proliferation assay, the cells were split at least 2 days before the assay to ensure optimal growth density. On the day of seeding, adherent cells were lifted off tissue culture flasks using 0.25% trypsin. Cell viability and cell density were determined using a cell counter (Vi-Cell XR Cell Viability Analyzer, Beckman Coulter). Cells with higher than 85% viability were seeded for the assay.
(§4) The COR-105 cell line was seeded in white, clear bottom 384-well TC treated plates (Corning cat. #3765). Cells were seeded at a density of 1,000 cells per well in 45 μL of standard growth media. Plates were incubated at 5% CO2, 37° C. overnight in a tissue culture incubator. The NCI-H1650 cell line was seeded in black, clear round bottom 384-well ultra-low attachment spheroid microplates (Corning cat. #3830). Cells were seeded at a density of 3,000 cells per well in 45 uL of standard growth media. Plates were spun in a centrifuge for 5 minutes and 1,000 RPM. Plates were incubated at 5% CO2, 37° C. for 72 hours in a tissue culture incubator.
(§5) On the day of dosing, BCL-xL degrader low molecular weight compounds were prepared at 1 OX in standard growth media. The prepared drug treatments were then added to the cells resulting in final concentrations of 0.508 nM-10 μM and a final volume of 50 μL per well. Each drug concentration was tested in quadruplets. Plates were incubated at 5% CO2, 37° C. for 5 days in a tissue culture incubator.
(§6) For COR-L105 plates, cell viability was assessed through the addition of 25 μL of CellTiter Glo® (Promega, cat #G7573), a reagent which lyses cells and measures total adenosine triphosphate (ATP) content. Plates were incubated at room temperature for 10 minutes to stabilize luminescent signals prior to reading with a luminescence reader (EnVision Multilabel Plate Reader, PerkinElmer). For NCI-H1650 plates, cell viability was assessed through the addition of 40 μL of CellTiter Glo® 3D Cell Viability Assay substrate (Promega, cat #G9681), a reagent which lyses cells and measures total adenosine triphosphate (ATP) content. Wells were mixed thoroughly and plates were incubated at room temperature for 30 minutes to stabilize luminescent signals prior to reading using a luminescence reader (EnVision Multilabel Plate Reader, PerkinElmer).
(§7) To evaluate the effect of the drug treatments, luminescent counts from wells containing untreated cells (100% viability) were used to normalize treated samples. A variable slope model was applied to fit a nonlinear regression curve to the data in GraphPad PRISM version 7.02 software. IC50 and Amax values were extrapolated from the resultant curves. The concentrations of treatment required to inhibit 50% of cell growth or survival (IC50) were calculated with representative IC50 values of the cell lines tested summarized in Table 11.

Bcl-xL = biological target: T1, Bcl-xL (Homo sapiens, UniProt Q07817); test: HCT116 Bcl-xL degradation, capillary-based immunoassay (WES); settings: for DC50: HCT116, 24 h, 9-point serial dilution; for remaining activity at 0.01 µM / remaining activity at 0.1 µM: HCT-116, 24 h, % of untreated cells; for remaining activity at 0.01 µM: HCT116, 10 nM; for remaining activity at 0.1 µM: HCT116, 100 nM
T1 construct: Measured levels of Bcl-xL protein of HCT116 cells treated with the tested compounds; host or cells: HCT116
T1 sequence (Q07817 whole entry): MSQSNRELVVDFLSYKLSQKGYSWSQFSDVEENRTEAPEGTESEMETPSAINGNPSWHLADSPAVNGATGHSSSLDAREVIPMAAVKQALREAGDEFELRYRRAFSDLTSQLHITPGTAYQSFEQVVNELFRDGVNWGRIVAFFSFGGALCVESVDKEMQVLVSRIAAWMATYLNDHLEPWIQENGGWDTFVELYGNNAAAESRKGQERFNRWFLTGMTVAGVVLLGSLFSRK
How it was run: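 Bcl-xL protein level by capillary WES immunoassay in HCT116 lysates, as % of untreated after cofilin normalization. Compound exposure was 24 h at 10 and 100 nM and/or a 9-point series, in quadruplicate. Four-parameter fitting gave the DC50.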

COR-L105 = test: CellTiter-Glo proliferation assay, COR-L105; settings: Homo sapiens, COR-L105, 120 h, COR-L105, 5 days; for Emax: read-out: COR-L105 Span (max)
Protocol: as §1, §2, §3, §4, §5, §6, §7

MOLT-4 cells [2] = test: MOLT-4 cell viability, CTG assay; settings: MOLT-4, 48 h
How it was run: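 Viability read as total ATP luminescence (CTG) after 48 h compound treatment, 11 points at 5-fold spacing in triplicate, cells in RPMI 1640/10% FBS. IC50 is the concentration halving signal relative to control, four-parameter fit, averaged over at least 2 experiments.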

[3] = system: EBC-1 lung cancer cell line; test: EBC-1 cell proliferation, CellTiter-Glo assay; settings: Homo sapiens, 120 h; Ebc-1 cell viability, CTG assay, 5 days of treatment; read-out: CTG 5 day Ebc1 GI50
How it was run: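 CellTiter-Glo read-out after 5-day compound treatment, normalised to untreated cells, with GI50 derived by four-parameter logistic regression. Ten concentrations spanning 0.508 nM–10 μM were added to 1000 EBC-1 cells per well the day after seeding. Assays required at least one cell doubling versus Day 0.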

HiBiT-tagged BCL-xL = biological target: T2, HiBiT-tagged BCL-xL (Homo sapiens, UniProt Q07817); test: NCI-H1650 BCL-xL protein levels, Nano-Glo HiBiT Lytic Detection; settings: NCI-H1650 expressing HiBiT-tagged BCL-xL, overnight incubation, read-out: Bcl-xl HIBIT NCIH1650 DC50
T2 construct: expressed in transfected cells; host or cells: NCI-H1650 (ATCC No. CRL-5883), engineered HiBiT cell line
T2 sequence (Q07817 whole entry): as above
How it was run: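 HiBiT luminescence after cell lysis with LgBiT/furimazine reagent reported BCL-xL levels, expressed relative to untreated wells and fitted with a four-parameter logistic equation. Engineered NCI-H1650 cells were exposed overnight at 37° C to compound at final 0.508 nM-10 μM (10 points, triplicate plates).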

IC50 (MOLT-4 cells [1]) [nM] | IC50 (NCI-H1650) [nM] | DC50 (Bcl-xL) [nM] | remaining activity at 0.01 µM (Bcl-xL) [%] | remaining activity at 0.1 µM (Bcl-xL) [%] | IC50 (MOLT-4 cells [2]) [nM] | GI50 [3] [nM] | DC50 (HiBiT-tagged BCL-xL) [nM] | Compound | Emax (NCI-H1650) [%] | IC50 (COR-L105) [nM] | Emax (COR-L105) [%] | NCI-H1650 Span (Amax) (NCI-H1650)
4.7 | 72.8 | > 316 | 68 | 54 |  |  |  | Cc1ncsc1-c1ccc(CNC(=O)C2C[C@@H](O)CN2C(=O)C(NC(=O)CCCCCC(=O)N2CCN(CCOC34CC5(C)CC(C)(CC(Cn6ncc(-c7ccc(N8CCCc9c8nnc(Nc8nc%10ccccc%10s8)c9C)nc7C(=O)O)c6C)(C5)C3)C4)CC2)C(C)(C)C)cc1 (stereo in doubt) [Example 22, 6-[3-(1,3-benzothiazol-2-ylamino)-4-methyl-6,7-dihydro-5H-pyrido[2,3-c]pyridazin-8-yl]-3-[1-[[3-[2-[4-[7-[[(1S)-1-[(2S,4R)-4-hydroxy-2-[[4-(4-methylthiazol-5-yl)phenyl]methylcarbamoyl]pyrrolidine-1-carbonyl]-2,2-dimethyl-propyl]amino]-7-oxo-heptanoyl]piperazin-1-yl]ethoxy]-5,7-dimethyl-1-adamantyl]methyl]-5-methyl-pyrazol-4-yl]pyridine-2-carboxylic acid] | 92.6 | 275 | 104 | 
10.5 | 35.7 |  | 82 | 67 |  |  |  | Cc1ncsc1-c1ccc(CNC(=O)[C@@H]2CC(O)CN2C(=O)C(NC(=O)CCCCC(=O)N2CCN(CCOC34CC5(C)CC(C)(CC(Cn6ncc(-c7ccc(N8CCCc9c8nnc(Nc8nc%10ccccc%10s8)c9C)nc7C(=O)O)c6C)(C5)C3)C4)CC2)C(C)(C)C)cc1 (stereo in doubt) [Example 23, 6-[3-(1,3-benzothiazol-2-ylamino)-4-methyl-6,7-dihydro-5H-pyrido[2,3-c]pyridazin-8-yl]-3-[1-[[3-[2-[4-[6-[[(1S)-1-[(2S,4R)-4-hydroxy-2-[[4-(4-methylthiazol-5-yl)phenyl]methylcarbamoyl]pyrrolidine-1-carbonyl]-2,2-dimethyl-propyl]amino]-6-oxo-hexanoyl]piperazin-1-yl]ethoxy]-5,7-dimethyl-1-adamantyl]methyl]-5-methyl-pyrazol-4-yl]pyridine-2-carboxylic acid] | 71.4 | 183 | 100 | 
1.09 | 38.8 | > 316 | 59 | 55 |  |  |  | Cc1c(Nc2nc3ccccc3s2)nnc2c1CCCN2c1nc(C(=O)O)c(CCCOc2ccc(C#CCN3CCN(C(=O)CCCCCCC(=O)NCCOCCNC(=O)COc4cccc5c4C(=O)N(C4CCC(=O)NC4=O)C5=O)CC3)cc2F)s1 (stereo not drawn) [Example 25, 2-[3-(1,3-benzothiazol-2-ylamino)-4-methyl-6,7-dihydro-5H-pyrido[2,3-c]pyridazin-8-yl]-5-[3-[4-[3-[4-[8-[2-[2-[[2-[2-(2,6-dioxo-3-piperidyl)-1,3-dioxo-isoindolin-4-yl]oxyacetyl]amino]ethoxy]ethylamino]-8-oxo-octanoyl]piperazin-1-yl]prop-1-ynyl]-2-fluoro-phenoxy]propyl]thiazole-4-carboxylic acid] | 74 | 174 | 87.4 | 
20.9 | 56.9 | > 316 | 63 | 51 | 26 |  |  | Cc1c(Nc2nc3ccccc3s2)nnc2c1CCCN2c1nc(C(=O)O)c(CCCOc2ccc(C#CCN3CCN(C(=O)CCCC(=O)NCCOCCNC(=O)COc4cccc5c4C(=O)N(C4CCC(=O)NC4=O)C5=O)CC3)cc2F)s1 (stereo not drawn) [Example 26, 2-[3-(1,3-benzothiazol-2-ylamino)-4-methyl-6,7-dihydro-5H-pyrido[2,3-c]pyridazin-8-yl]-5-[3-[4-[3-[4-[5-[2-[2-[[2-[2-(2,6-dioxo-3-piperidyl)-1,3-dioxo-isoindolin-4-yl]oxyacetyl]amino]ethoxy]ethylamino]-5-oxo-pentanoyl]piperazin-1-yl]prop-1-ynyl]-2-fluoro-phenoxy]propyl]thiazole-4-carboxylic acid] | 70.1 | 212 | 88 | 
64.2 | > 1000 |  | 83 | 53 |  |  |  | Cc1cc(N(C)c2nc(C(=O)O)c(CCCOc3ccc(C#CCN(C)CC(=O)NCCOCCNC(=O)COc4cccc5c4C(=O)N(C4CCC(=O)NC4=O)C5=O)cc3F)s2)nnc1Nc1nc2ccccc2s1 (stereo not drawn) [Example 32, 2-[[6-(1,3-benzothiazol-2-ylamino)-5-methyl-pyridazin-3-yl]-methyl-amino]-5-[3-[4-[3-[[2-[2-[2-[[2-[2-(2,6-dioxo-3-piperidyl)-1,3-dioxo-isoindolin-4-yl]oxyacetyl]amino]ethoxy]ethylamino]-2-oxo-ethyl]-methyl-amino]prop-1-ynyl]-2-fluoro-phenoxy]propyl]thiazole-4-carboxylic acid] |  | > 10000 |  | —
82.1 |  | 11.4 |  |  |  | 121 | > 1670 | Cc1cc(N(CCCCCn2cc(CCCCCCCCC(=O)N[C@H](C(=O)N3C[C@H](O)C[C@H]3C(=O)NCc3ccc(-c4scnc4C)cc3)C(C)(C)C)nn2)c2ccc(-c3cnn(CC45CC6(C)CC(C)(C4)CC(OCCN(C)C)(C6)C5)c3C)c(C(=O)O)n2)nnc1Nc1nc2ccccc2s1 [Example 152, 6-[[6-(1,3-benzothiazol-2-ylamino)-5-methyl-pyridazin-3-yl]-[5-[4-[9-[[(1S)-1-[(2S,4R)-4-hydroxy-2-[[4-(4-methylthiazol-5-yl)phenyl]methylcarbamoyl]pyrrolidine-1-carbonyl]-2,2-dimethyl-propyl]amino]-9-oxo-nonyl]triazol-1-yl]pentyl]amino]-3-[1-[[3-[2-(dimethylamino)ethoxy]-5,7-dimethyl-1-adamantyl]methyl]-5-methyl-pyrazol-4-yl]pyridine-2-carboxylic acid] |  |  |  | 
